Where a name gives a salt, the structure may show the parent alone.
Biological target: T1, G9a (Homo sapiens, UniProt Q96KQ7)
T1 sequence (Q96KQ7 1-1210): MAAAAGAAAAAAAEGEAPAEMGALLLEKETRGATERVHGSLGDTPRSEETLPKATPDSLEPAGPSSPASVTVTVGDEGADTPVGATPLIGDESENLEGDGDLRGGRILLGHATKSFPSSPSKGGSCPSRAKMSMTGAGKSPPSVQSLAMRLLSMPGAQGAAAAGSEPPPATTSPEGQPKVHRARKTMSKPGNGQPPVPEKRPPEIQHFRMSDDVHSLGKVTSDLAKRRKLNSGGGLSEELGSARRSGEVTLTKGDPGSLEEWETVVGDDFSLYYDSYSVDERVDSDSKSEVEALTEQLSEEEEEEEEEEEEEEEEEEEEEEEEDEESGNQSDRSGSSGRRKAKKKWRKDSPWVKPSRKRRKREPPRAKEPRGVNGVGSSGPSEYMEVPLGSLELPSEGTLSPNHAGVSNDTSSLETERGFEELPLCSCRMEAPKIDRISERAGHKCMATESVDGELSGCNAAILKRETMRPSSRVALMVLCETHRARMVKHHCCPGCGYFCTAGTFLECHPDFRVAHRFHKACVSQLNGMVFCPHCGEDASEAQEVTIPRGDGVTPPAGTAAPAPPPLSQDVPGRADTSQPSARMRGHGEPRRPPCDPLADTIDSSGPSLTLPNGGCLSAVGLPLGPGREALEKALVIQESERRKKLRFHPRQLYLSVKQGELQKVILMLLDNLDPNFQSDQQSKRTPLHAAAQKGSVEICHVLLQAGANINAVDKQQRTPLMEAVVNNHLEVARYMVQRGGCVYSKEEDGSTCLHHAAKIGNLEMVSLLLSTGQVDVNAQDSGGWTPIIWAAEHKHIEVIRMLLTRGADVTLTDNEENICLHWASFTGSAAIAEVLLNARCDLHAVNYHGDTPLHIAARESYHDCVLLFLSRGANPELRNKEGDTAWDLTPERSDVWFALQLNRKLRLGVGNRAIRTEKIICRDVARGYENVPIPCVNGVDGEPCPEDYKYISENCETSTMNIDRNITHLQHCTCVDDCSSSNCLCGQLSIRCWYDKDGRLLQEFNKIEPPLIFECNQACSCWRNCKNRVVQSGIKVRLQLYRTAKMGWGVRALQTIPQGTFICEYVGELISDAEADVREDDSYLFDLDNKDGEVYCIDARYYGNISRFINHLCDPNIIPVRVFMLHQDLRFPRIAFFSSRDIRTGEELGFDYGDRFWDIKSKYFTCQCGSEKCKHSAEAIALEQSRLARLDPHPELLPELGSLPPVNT
Test: G9a AlphaLISA enzymatic activity assay
Assay type: biochemical
Conditions: 0.15 nM G9a, 10 uM S-adenosyl-methionine, 100 nM biotinylated histone 3 peptide (1-21), 1 h room temperature
Text: The G9a AlphaLISA assay was used to detect the methyl modifications of a biotinylated histone H3 peptide by the compounds. These modifications are done by the histone methyl transferase activity of the G9a enzyme. The assay consists of reading a chemiluminescent signal at 615 nm; this signal is generated by a laser excitation at 680 nm that transfers a reactive singlet oxygen between the donor beads and acceptor beads. Donor beads are streptavidin conjugated and bind to the biotin on the peptide. Acceptor beads are conjugated with an antibody that recognizes the specific G9a methyl mark on the peptide. If there is a methyl mark on the peptide, the acceptor beads will bind to the peptide. Upon binding, the acceptor beads will be in close proximity (<200 nm) of the donor beads and when the donor beads are excited, the transfer of the oxygen can occur and a strong signal will be generated. If there is no methyl mark, the interaction between beads will not occur and signal will be at background levels.
For the assay, the following buffer was used to set up reactions: 50 mM Tris-HCl pH9, 50 mM NaCl, 0.01% Tween-20 and 1 mM DTT (added fresh prior to starting the reactions). The assay is set up by adding a final concentration of 0.15 nM G9a, 10 uM S-adenosyl-methionine and, 100 nM biotinylated histone 3 peptide (1-21). The reaction is incubated at room temperature for 1 h, and subsequently quenched by the addition of the acceptor beads (anti-H3k9me2 AlphaLISA acceptor beads, PerkinElmer #AL117) at a final concentration of 20 ug/mL. The acceptor beads are incubated for 1 h. After 1 h, the donor beads are added at a final concentration of 20 ug/mL (Alpha Streptavidin donor beads, PerkinElmer #6760002). Donor beads are incubated for 0.5 h. Both donor and acceptor beads are resuspended in AlphaLISA 5× Epigenetics Buffer 1 Kit (PerkinElmer #AL008) prior to addition to the reaction. All manipulations and incubations with the donor and acceptor beads are done in subdued light. Signal is detected in an EnVision plate reader in Alpha mode (See ACS Med Chem Lett. 2014 Jan. 2; 5(2):205-9)
Percent inhibition was calculated for each compound dilution and the concentration that produced 50% inhibition was calculated. This value is presented as the IC50.

Row | SMILES | IC50 [µM]
1 | CCN(C)CCCOc1cc2[nH]c3ccncc3c2cc1OC [Compound 45, ethyl[3-({8-methoxy-5H-pyrido[4,3-b]indol-7-yl}oxy)propyl]methylamine hydrochloride] | 0.056
2 | CCN(C)CCCOc1cc2[nH]c3ccnc(C4CC4)c3c2cc1OC [Compound 46, [3-({1-cyclopropyl-8-methoxy-5H-pyrido[4,3-b]indol-7-yl}oxy)propyl](ethyl)methylamine hydrochloride] | 0.024
3 | COc1cc2c(cc1OCCCN(C)C)[nH]c1ccnc(C3CC3)c12 [Compound 47, [3-({1-cyclopropyl-8-methoxy-5H-pyrido[4,3-b]indol-7-yl}oxy)propyl]dimethylamine hydrochloride] | 0.0094
4 | COc1cc2c(cc1OCCCN(C)C)[nH]c1ccnc(C#CC(C)(C)O)c12 [Compound 48, 4-{7-[3-(dimethylamino)propoxy]-8-methoxy-5H-pyrido[4,3-b]indol-1-yl}-2-methylbut-3-yn-2-ol hydrochloride] | 1.3
5 | COc1cc2c(cc1OCCCN(C)C)[nH]c1ccnc(CCC(C)(C)O)c12 [Compound 49, 4-{7-[3-(dimethylamino)propoxy]-8-methoxy-5H-pyrido[4,3-b]indol-1-yl}-2-methylbutan-2-ol hydrochloride] | 0.045
6 | COc1cc2c(cc1OCCCN(C)C)[nH]c1ccnc(C#CC3CC3)c12 [Compound 51, (3-{[1-(2-cyclopropylethynyl)-8-methoxy-5H-pyrido[4,3-b]indol-7-yl]oxy}propyl)dimethylamine hydrochloride] | 0.47
7 | COc1cc2c(cc1OCCCN(C)C)[nH]c1ccnc(CCC3CC3)c12 [Compound 52, 3-((1-(2-cyclopropylethyl)-8-methoxy-5H-pyrido[4,3-b]indol-7-yl)oxy)-N,N-dimethylpropan-1-amine hydrochloride] | 0.1
8 | COc1cc2c(cc1OCCOCCN(C)C)[nH]c1ccnc(C3CC3)c12 [Compound 53, {2-[2-({1-cyclopropyl-8-methoxy-5H-pyrido[4,3-b]indol-7-yl}oxy)ethoxy]ethyl}dimethylamine hydrochloride] | 0.062
9 | COc1cc2c(cc1OCCCN1CCCC1C)[nH]c1ccnc(C3CC3)c12 (centres unmarked) [Compound 60, 1-[3-({1-cyclopropyl-8-methoxy-5H-pyrido[4,3-b]indol-7-yl}oxy)propyl]-2-methylpyrrolidine hydrochloride] | 0.051
10 | COc1cc2c(cc1OCCCN1CC[C@@H](F)C1)[nH]c1ccnc(C3CC3)c12 [Compound 62, (3R)-1-[3-({1-cyclopropyl-8-methoxy-5H-pyrido[4,3-b]indol-7-yl}oxy)propyl]-3-fluoropyrrolidine hydrochloride] | 0.053
11 | COc1cc2c(cc1OCCCN1CCCC1)[nH]c1ccnc(C3CCOCC3)c12 [Compound 65, 1-(3-{[8-methoxy-1-(oxan-4-yl)-5H-pyrido[4,3-b]indol-7-yl]oxy}propyl)pyrrolidine hydrochloride] | 0.0082
12 | COc1cc2c(cc1OCCCN(C)C)[nH]c1ccnc(C(C)C)c12 [Compound 67, (3-{[8-methoxy-1-(propan-2-yl)-5H-pyrido[4,3-b]indol-7-yl]oxy}propyl)dimethylamine hydrochloride] | 0.0095
13 | COc1cc2c(cc1OCCCN(C)C)[nH]c1ccnc(C3CCOCC3)c12 [Compound 68, (3-{[8-methoxy-1-(oxan-4-yl)-5H-pyrido[4,3-b]indol-7-yl]oxy}propyl)dimethylamine hydrochloride] | 0.026
14 | COc1cc2c(cc1OCCCN(C)C)[nH]c1ccnc(C3CCC3)c12 [Compound 69, [3-({1-cyclobutyl-8-methoxy-5H-pyrido[4,3-b]indol-7-yl}oxy)propyl]dimethylamine hydrochloride] | 0.03
15 | COc1cc2c(cc1OCCN(C)C)[nH]c1ccncc12 [Compound 70, [2-({8-methoxy-5H-pyrido[4,3-b]indol-7-yl}oxy)ethyl]dimethylamine hydrochloride] | 0.4
16 | COc1cc2c(cc1OCCN1CCCC1)[nH]c1ccncc12 [Compound 71, 1-[2-({8-methoxy-5H-pyrido[4,3-b]indol-7-yl}oxy)ethyl]pyrrolidine hydrochloride] | 0.052
17 | COc1cc2c(cc1OCCCN1CCC1)[nH]c1ccncc12 [Compound 72, 1-[3-({8-methoxy-5H-pyrido[4,3-b]indol-7-yl}oxy)propyl]azetidine hydrochloride] | 0.0091

Continued by falling IC50, values first:

Row | IC50 [µM] | SMILES
18 | 0.69 | COc1cc2c(cc1OCCCN(C)C)[nH]c1ccnc(C#CC(C)O)c12 (centres unmarked) [Compound 50, 4-{7-[3-(dimethylamino)propoxy]-8-methoxy-5H-pyrido[4,3-b]indol-1-yl}but-3-yn-2-ol hydrochloride]
19 | 0.48 | COc1cc2c(cc1OCCCN(C(C)C)C(C)C)[nH]c1ccnc(C3CC3)c12 [Compound 61, [3-({1-cyclopropyl-8-methoxy-5H-pyrido[4,3-b]indol-7-yl}oxy)propyl]bis(propan-2-yl)amine hydrochloride]
20 | 0.16 | C#Cc1nccc2[nH]c3cc(OCCCN(C)C)c(OC)cc3c12 [Compound 59, [3-({1-ethynyl-8-methoxy-5H-pyrido[4,3-b]indol-7-yl}oxy)propyl]dimethylamine hydrochloride]
21 | 0.13 | COc1cc2c(cc1OCCCN1CC[C@H](F)C1)[nH]c1ccnc(C3CC3)c12 [Compound 63, (3S)-1-[3-({1-cyclopropyl-8-methoxy-5H-pyrido[4,3-b]indol-7-yl}oxy)propyl]-3-fluoropyrrolidine hydrochloride]
22 | 0.086 | COCCCc1nccc2[nH]c3cc(OCCCN(C)C)c(OC)cc3c12 [Compound 58, (3-{[8-methoxy-1-(3-methoxypropyl)-5H-pyrido[4,3-b]indol-7-yl]oxy}propyl)dimethylamine hydrochloride]
23 | 0.061 | CCOCCc1nccc2[nH]c3cc(OCCCN(C)C)c(OC)cc3c12 [Compound 57, (3-{[1-(2-ethoxyethyl)-8-methoxy-5H-pyrido[4,3-b]indol-7-yl]oxy}propyl)dimethylamine hydrochloride]
24 | 0.018 | CCCc1nccc2[nH]c3cc(OCCCN(C)C)c(OC)cc3c12 [Compound 55, [3-({8-methoxy-1-propyl-5H-pyrido[4,3-b]indol-7-yl}oxy)propyl]dimethylamine hydrochloride]
25 | 0.015 | COc1cc2c(cc1OCCCN(C)C)[nH]c1ccnc(C3CCCC3)c12 [Compound 56, [3-({1-cyclopentyl-8-methoxy-5H-pyrido[4,3-b]indol-7-yl}oxy)propyl]dimethylamine hydrochloride]
26 | 0.012 | COc1cc2c(cc1OCCCN1CCCC1)[nH]c1ccnc(C3=CCOCC3)c12 [Compound 64, 1-(3-{[1-(3,6-dihydro-2H-pyran-4-yl)-8-methoxy-5H-pyrido[4,3-b]indol-7-yl]oxy}propyl)pyrrolidine hydrochloride]
